Laboratory results published in ChEMBL document CHEMBL1221282, “The action of bromoconduritol on ER glucosidase II” (Bioorg Med Chem Lett, 2010).
pIC50: −log10 of the molar value.

Assays:
Rattus norvegicus [1] = species: Rattus norvegicus; assay: Inhibition of rat liver glucosidase 2 assessed as inhibition of consumption at 100 uM after 1 hr
[2] = Inhibition of rat liver glucosidase 2 assessed as inhibition of conversion of G1M9 to M9
Rattus norvegicus [3] = species: Rattus norvegicus; assay: Inhibition of rat liver glucosidase 2 assessed as inhibition of consumption at 100 uM after 24 hrs
[4] = Inhibition of rat liver glucosidase 2 assessed as inhibition of conversion of G2M9 to G1M9
Rattus norvegicus [5] = species: Rattus norvegicus; assay: Inhibition of rat liver glucosidase 2 assessed as inhibition of consumption at 100 uM after 20 mins

inhibition (Rattus norvegicus [1]) [%]	pIC50 [2]	inhibition (Rattus norvegicus [3]) [%]	pIC50 [4]	inhibition (Rattus norvegicus [5]) [%]	Compound
20	4.39	< 10	3.58	36	O[C@H]1[C@H](O)C=CC(Br)[C@@H]1O (some centres undefined) [BROMOCONDURITOL]
–	4.95	–	5.09	–	OC[C@H]1NC[C@H](O)[C@@H](O)[C@@H]1O [DUVOGLUSTAT]

Compound	inhibition (Rattus norvegicus [1]) [%]	pIC50 [2]	inhibition (Rattus norvegicus [3]) [%]	pIC50 [4]	inhibition (Rattus norvegicus [5]) [%]
O[C@H]1[C@H](O)[C@@H](O)CN2CC[C@H](O)[C@H]12 [CASTANOSPERMINE]	–	5.96	–	5.89	–
